The subject of one data set is murine melanoma (B16). The note with it: for % Increase in survival time relative to control (100%) / Survivors in cancer model: mouse, in vivo.
Data set [1] concerns human influenza virus, strain AT2/Taiwan/1/64. Description: Anti viral evaluation with human influenza virus in mice. To be noted: 21 days observation, virus dose ~90% lethality. The class given is in vivo.
Another data set relates to Rhinovirus. To be noted: in vivo Rhinovirus.
For data set [2], the system named is solid tumors removed from patients. Description: In Vitro Human Tumor Colony Forming Units Test. The class given is cell-based. To be noted: for effective against tumors (number of tumors): continuous exposure or single dose experiment. How it is done: (§1) Solid tumors removed from patients are minced into 2 to 5 mm fragments and immediately placed in McCoy's Medium 5A plus 10% heat inactivated newborn calf serum lus 1% penicillin/streptomycin. Within 4 hours, these solid tumors are mechanically disassociated with scissors, forced through No. 100 stainless steel mesh, through 25 gauge needles, and then washed with McCoys medium as described above. Ascitic, pleural, pericardial fluids and bone marrow are obtained by standard techniques. The fluid or marrow is placed in sterile containers containing 10 units of preservative free heparin per ml. of malignant fluid or marrow. After centrifugation at 150× g for 10 minutes, the cells are harvested and washed with McCoy's medium plus 10% heat inactivated calf serum. The viability of cell suspensions is determined on a hemocytometer with trypan blue.
Cells to be cloned are suspended in 0.3% agar in enriched CMRL1066 supplemented with 15% heat inactivated horse serum, penicillin (100 units/ml), streptomycin ([…]), glutamine (2 mM ), insulin (3 units/ml), asparagine (0.6 mg/ml), and HEPES buffer (2 mM ). For the continuous exposure test each compound is added to the above mixture. Cells are placed in 35 mm petri dishes in a top layer of agar over an underlayer of agar to prevent growth of fibroblasts. Three plates are prepared for each data point. The plates are placed in a 37° C. incubator, and are removed on day 14 for counting of the number of colonies in each plate. The number of colonies (defined as 50 cells) formed in the 3 compound treated plates is compared to the number of colonies formed in the 3 control plates, and the percent colonies surviving at the concentration of compound can be tabulated. Three positive control plates are used to determine survival rate. Orthosodium vanadate at 200 μg/ml is used as the positive control. If there is <30% cells in the positive control when compared to the untreated control, the test is evaluated. […]

Data set [3] relates to lung, non-small cell cancer. As to the kind of experiment: In Vitro Human Tumor Colony Forming Units Test, lung, non-small cell. The note with it: 50.0 μg/ml, continuous exposure. The class given is cell-based. How it is done: as §1
(§2) Cells to be cloned are suspended in 0.3% agar in enriched CMRL1066 supplemented with 15% heat inactivated horse serum, penicillin (100 units/ml), streptomycin ([…]), glutamine (2 mM ), insulin (3 units/ml), asparagine (0.6 mg/ml), and HEPES buffer (2 mM ). For the continuous exposure test each compound is added to the above mixture. […] If there is <30% cells in the positive control when compared to the untreated control, the test is evaluated. […]

The next data set deals with ovarian cancer. Description: In Vitro Human Tumor Colony Forming Units Test, ovarian. The class given is cell-based. To be noted: 50.0 μg/ml, continuous exposure. As to the method:
as §1, §2

A further data set deals with influenza. Description: in vitro model for influenza.
In a further data set the test system is chronic hepatitis C. The note with it: interferon with or without ribavarin; cited from earlier work.

Several values for one entry are separate records, joined by “and”; a condition that tells them apart may be missing. Equal values may be shown once. Read-outs that look alike come from different tables or passages of the source.

Description for murine melanoma (B16): In an in vivo mouse model for murine melanoma (B16) fluconazole was tested alone and in combination with adriamycin (doxorubicin) at various doses.

With `COc1cccc2c1C(=O)c1c(O)c3c(c(O)c1C2=O)C[C@@](O)(C(=O)CO)C[C@@H]3O[C@H]1C[C@H](N)[C@H](O)[C@H](C)O1` [Adriamycin], the Toxic deaths in the data set on murine melanoma (B16) (fluconazole 0, adriamycin 2 mg/kg) came out at 0; in the data set on murine melanoma (B16) (fluconazole 0, adriamycin 3 mg/kg), 0; with murine melanoma (B16) (fluconazole 0, adriamycin 4 mg/kg), 0. In the data set with murine melanoma (B16), the “% Increase in survival time relative to control (100%)” value was “cures occurred”. In addition, the “Survivors in cancer model” value in the data set on murine melanoma (B16) was 6/10 and 8/10 and 10/10.

In the case of `OC(Cn1cncn1)(Cn1cncn1)c1ccc(F)cc1F` [Fluconazole, 2-(2,4-difluorophenyl)-1,3-bis(1H-1,2,4-triazol-1-yl)propan-2-ol], the “Percent Mortality” value in data set [1] (350 mg/kg oral) is reported as 0%; in data set [1] (700 mg/kg oral), 30%. The “activity in screening test” value in the data set with Rhinovirus is “Nor was it active”. Further, the “effective against tumors (number of tumors)” value is 0/3 in data set [2] (0.5 μg/ml) and 0/13 in data set [2] (5.0 μg/ml). Also, the “tumors with <50% survival (over all)” value in data set [2] (50.0 μg/ml, continuous exposure) is on record as 4/13. The “effectiveness against lung, non-small cell cancer” value in data set [3] is “effective”. The “effectiveness against ovarian cancer” value with ovarian cancer is recorded as “effective”. In addition, the Toxic deaths in the data set with murine melanoma (B16) (fluconazole 175 mg/kg, adriamycin 0) was determined as 0; with murine melanoma (B16) (fluconazole 350 mg/kg, adriamycin 0), 0; in the data set on murine melanoma (B16) (fluconazole 700 mg/kg, adriamycin 0), 0. Also, the “% Increase in survival time relative to control (100%)” value in the data set with murine melanoma (B16) is 120% and 116% and 117%. Besides, in the data set with murine melanoma (B16), the “Survivors in cancer model” value stood at 0. Further, in the data set with influenza, the “activity in an in vitro model for influenza” value was “did not show activity”.

As for `NC12CC3CC(CC(C3)C1)C2` [Amantadine], in data set [1] (75 mg/kg oral), the “Percent Mortality” value amounted to 0%.

As to interferon, the response rate result in the data set with chronic hepatitis C is “about 25%”.

The record behind these values is patent US6136835A (priority 1999, dated 2000).
